# Test results as given in patent US6649763B1, “Optically active quinoline carboxylic acid derivatives with 7-pyrrolidine substituents causing optical activity and a process for the preparation thereof” (Dong Wha Pharm. Ind. Co., Ltd., priority 1999, dated 2003).
# Key:
# in vivo = settings: SD, rat, in vivo, po, 40 mg/kg
# Method: After being starved for 16 hours, SD rats were orally administered at a dose of 40 mg/5 ml/kg with the compounds of interest and at a dose of 50 mg/5 ml/kg with the control. Immediately after being drawn at predetermined times from the eyeballs, blood was separated into plasma and other ingredients and quantitatively analyzed for pharmacokinetic parameters by use of high performance liquid chromatograph (HPLC).
# Phototoxicity test = type: in vivo; settings: CD-1 female mice, oral 50 mg/kg
# Method: It is known that the presence of a halogen atom at the 8-position of the quinolone nuclei causes phototoxicity.
# After 16 hours of starvation, CD-1 female mice were orally administered with a dose of 50 mg/kg of the compounds and allowed to be exposed for 4.5 hours to a UVA light source. The mice were located 15 cm away from the light source. Whether the mice were damaged in their ears was adopted as a main factor for the phototoxicity and determined after 24 hour and 48 hour UV exposure. The edema which the mice suffered were examined by measuring the thickness changes of their ears with the aid of electronic calipers and calculating average values. Also, an observation was made as to whether the mice suffered from erythema.
# [1] = test system: Staphylococcus aureus 303; experiment: Antibacterial activity in vitro (MIC, agar dilution); type: cell-based; settings: resistant strain Staphylococcus aureus 303, read-out: minimum inhibitory concentration (MIC)
# Method: (§1) The optically active quinoline carboxylic acid derivatives of the present invention were tested as to whether they could be useful as antibacterial compounds. In this regard, the compounds were measured for minimum inhibitory concentration (MIC: unit μg/ml) according to an agar dilution process (Hoechst 345) in which Muller-Hinton agars were diluted two fold. For comparison, ciprofloxacin and sparfloxacin were used as controls. Corresponding enantiomers and racemates of the compounds of interest were also used as comparative ones. Bacteria were inoculated at an amount of about 10^7 cfu/ml onto each agar. 18 hours after the inoculation at 37° C., the growth of the bacteria was observed. As to methicillin-resistant strains, their growth was observed 48 hours after the inoculation at […]. Hoechst standard strains were used as the test bacteria.
# [2] = test system: Staphylococcus aureus 241; experiment: as above; type: cell-based; settings: resistant strain Staphylococcus aureus 241, read-out: minimum inhibitory concentration (MIC)
# Method: as §1
# Escherichia coli DC 0 = experiment: as above; type: cell-based; settings: DC0, standard strain Escherichia coli DC 0, read-out: minimum inhibitory concentration (MIC)
# Method: as §1
# [3] = test system: Staphylococcus aureus 503; experiment: as above; type: cell-based; settings: standard strain Staphylococcus aureus 503, read-out: minimum inhibitory concentration (MIC)
# Method: as §1
# [4] = test system: Staphylococcus aureus 208E; experiment: as above; type: cell-based; settings: resistant strain Staphylococcus aureus 208E, read-out: minimum inhibitory concentration (MIC)
# Method: as §1
# [5] = test system: Streptococus pyogenes 77A; experiment: as above; type: cell-based; settings: standard strain Streptococus pyogenes 77A, read-out: minimum inhibitory concentration (MIC)
# Method: as §1
# [6] = test system: Staphylococcus aureus 293; experiment: as above; type: cell-based; settings: resistant strain Staphylococcus aureus 293, read-out: minimum inhibitory concentration (MIC)
# Method: as §1
# [7] = test system: Staphylococcus aureus 285; experiment: as above; type: cell-based; settings: standard strain Staphylococcus aureus 285, read-out: minimum inhibitory concentration (MIC)
# Method: as §1
# [8] = test system: Staphylococcus aureus 256E; experiment: as above; type: cell-based; settings: resistant strain Staphylococcus aureus 256E, read-out: minimum inhibitory concentration (MIC)
# Method: as §1
# [9] = test system: Staphylococcus aureus 690E; experiment: as above; type: cell-based; settings: resistant strain Staphylococcus aureus 690E, read-out: minimum inhibitory concentration (MIC)
# Method: as §1
# [10] = test system: Staphylococcus aureus SG511; experiment: as above; type: cell-based; settings: standard strain Staphylococcus aureus SG511, read-out: minimum inhibitory concentration (MIC)
# Method: as §1
# [11] = test system: Streptococus pyogenes 308A; experiment: as above; type: cell-based; settings: standard strain Streptococus pyogenes 308A, read-out: minimum inhibitory concentration (MIC)
# Method: as §1
# [12] = test system: Staphylococcus epidermidis 329; experiment: as above; type: cell-based; settings: Staphylococcus epidermidis, 329, resistant strain Staphylococcus epidermidis 329, read-out: minimum inhibitory concentration (MIC)
# Method: as §1
# [13] = test system: Staphylococcus epidermidis 319; experiment: as above; type: cell-based; settings: Staphylococcus epidermidis, 319, resistant strain Staphylococcus epidermidis 319, read-out: minimum inhibitory concentration (MIC)
# Method: as §1
# Escherichia coli DC 2 = experiment: as above; type: cell-based; settings: DC2, standard strain Escherichia coli DC 2, read-out: minimum inhibitory concentration (MIC)
# Method: as §1
# [14] = test system: Streptococus faecium MD 8b; experiment: as above; type: cell-based; settings: standard strain Streptococus faecium MD 8b, read-out: minimum inhibitory concentration (MIC)
# Method: as §1
# [15] = test system: Staphylococcus aureus 88E; experiment: as above; type: cell-based; settings: resistant strain Staphylococcus aureus 88E, read-out: minimum inhibitory concentration (MIC)
# Method: as §1
# [16] = test system: Pseudomonas aeruginosa 1771M; experiment: as above; type: cell-based; settings: read-out: minimum inhibitory concentration (MIC)
# Method: as §1
# [17] = test system: Staphylococcus aureus 693E; experiment: as above; type: cell-based; settings: resistant strain Staphylococcus aureus 693E, read-out: minimum inhibitory concentration (MIC)
# Method: as §1
# [18] = test system: Staphylococcus aureus 692E; experiment: as above; type: cell-based; settings: resistant strain Staphylococcus aureus 692E, read-out: minimum inhibitory concentration (MIC)
# Method: as §1
# [19] = test system: Staphylococcus aureus 179; experiment: as above; type: cell-based; settings: resistant strain Staphylococcus aureus 179, read-out: minimum inhibitory concentration (MIC)
# Method: as §1
# [20] = test system: Staphylococcus aureus 121E; experiment: as above; type: cell-based; settings: resistant strain Staphylococcus aureus 121E, read-out: minimum inhibitory concentration (MIC)
# Method: as §1
# Enterobacter cloacae P99 = experiment: as above; type: cell-based; settings: standard strain Enterobacter cloacae P99, read-out: minimum inhibitory concentration (MIC)
# Description: Corresponding enantiomers and racemates of the compounds of interest were also used as comparative ones. Bacteria were inoculated at an amount of about 10^7 cfu/ml onto each agar. […] Hoechst standard strains were used as the test bacteria.
# Gram-positive bacteria = experiment: Antibacterial activity in vitro, potency comparison; type: cell-based; settings: against Gram-positive bacteria
# Method: as §1
# Escherichia coli = experiment: as above; type: cell-based; settings: against Escherichia coli, a representative Gram-negative strain
# Method: as §1
# [21] = test system: Staphylococcus aureus and Staphylococcus epidermis, both resistant to quinolone antibacterial agents; experiment: as above; type: cell-based
# Method: as §1
# [22] = after 48 hours of the UV exposure
# [23] = against resistant Staphylococcus aureus and Staphylococcus epidermis
# [24] = against resistant staphylcoccus aureus and staphylococcus epidermis (Table 2)
compound,measurement,setting,value
"CO/N=C1\CN(c2c(F)c(N)c3c(=O)c(C(=O)O)cn(C4CC4)c3c2F)CC1(C)CN.Cl (single isomer, unassigned; (-)) [Example 14, (−)-5-Amino-7-(4-aminomethyl-4-methyl-3-(Z)-methyloxyiminopyrrolidin-1-yl)-1-cyclopropyl-6,8-difluoro-4-oxo-1,4-dihydro-3-quinolinecarboxylic Acid Hydrochloride]",Cmax,in vivo,6.67 ± 3.33 µg/mL
same,half-life,in vivo,6.94 h
same,"Thickness of mice's ears after UV exposure, After 24 hr",Phototoxicity test; UVA light source,21.6 ± 0.52
same,"Thickness of mice's ears after UV exposure, After 48 hr",Phototoxicity test; UVA light source,21.6 ± 0.52
same,edema and erythema observed after UV exposure,Phototoxicity test; [22],no erythema was observed
same,increase in ear thickness compared with before the UV exposure,Phototoxicity test; [22],16.8%
same,"Thickness of mice's ears, Before UV exposure",Phototoxicity test; baseline before UVA,18.5 ± 0.76
same,MIC,[1],13 ng/mL
same,MIC,[2],13 ng/mL
same,MIC,Escherichia coli DC 0,4 ng/mL
same,MIC,[3],< 2 ng/mL
same,MIC,[4],< 2 ng/mL
same,MIC,[5],< 2 ng/mL
same,MIC,[6],13 ng/mL
same,MIC,[7],< 2 ng/mL
same,MIC,[8],< 2 ng/mL
same,MIC,[9],< 2 ng/mL
same,MIC,[10],< 2 ng/mL
same,MIC,[11],4 ng/mL
same,MIC,[12],25 ng/mL
same,MIC,[13],25 ng/mL
same,MIC,Escherichia coli DC 2,< 2 ng/mL
same,MIC,[14],13 ng/mL
same,MIC,[15],< 2 ng/mL
same,MIC,[16],195 ng/mL
same,MIC,[17],< 2 ng/mL
same,MIC,[18],< 2 ng/mL
same,MIC,[19],13 ng/mL
same,MIC,[20],< 2 ng/mL
same,MIC,Enterobacter cloacae P99,< 2 ng/mL
same,fold higher antibacterial activity than ciprofloxacin,Gram-positive bacteria,30-781 fold
same,fold higher antibacterial activity than sparfloxacin,Gram-positive bacteria,24-195 fold
same,fold more potent antibacterial effect than ciprofloxacin,Escherichia coli,49 fold
same,fold more potent antibacterial effect than sparfloxacin,Escherichia coli,12-49 fold
same,times as potent in antibacterial activity as ciprofloxacin,[21]; [23],129-962 times
same,times as potent in antibacterial activity as sparfloxacin,[21]; [23],24-481 times
same,fold more potent antibacterial activity than its enantiomer,[21]; [24],2-63 fold
same,fold more potent antibacterial activity than its racemate,[21]; [24],up to four fold more potent
